The values below come from ChEMBL document CHEMBL1201862, “PubChem BioAssay data set” (2004).

Among the test systems are 786-0; A498; ACHN; CAKI-1; HT-29; Hs-578T; K562; MOLT-4; NCI-H522; OVCAR-5; PC-3; SF-539; SK-MEL-2; SK-OV-3; SNB-75; SW-620; T47D; U-251; UACC-257; UACC-62.
Holding throughout (assay): inhibition of tumour cell growth, NCI panel, 48 h

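Results reflect a 48-hour exposure of cells in 96-well plates to compound at five concentrations. Here, GI50 denotes the concentration required for 50% inhibition of growth.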 Active and inactive are the calls of the source. No stated cut-off is given here; in the data, active = GI50 up to about 1.1 µM and inactive = higher.

Consider `CC(C)=CCc1ccc2[nH]c3c(c2c1)C(=O)C(=O)C(C)=C3C(O)C(C)O` (stereo not drawn), for which the GI50 in the assay on 786-0 is 1.87 µM (inactive); in the assay with A498 it was 12.5 µM (inactive); in the assay with ACHN, 4.27 µM (inactive); in the assay on CAKI-1, 4.38 µM (inactive); in the assay on HT-29, 9.33 µM (inactive); in the assay on Hs-578T, 15.1 µM (inactive). For the same molecule, the GI50 in the assay on K562 was 2.07 µM (inactive); with MOLT-4 it was 1.7 µM (inactive); in the assay with NCI-H522, 1.69 µM (inactive); in the assay on OVCAR-5 it was 18.4 µM (inactive); in the assay with PC-3, 9.57 µM (inactive); in the assay on SF-539, 5.98 µM (inactive). In addition, the GI50 in the assay with SK-MEL-2 was 8.2 µM (inactive); in the assay on SK-OV-3 it was 16.2 µM (inactive); in the assay on SNB-75, 17.7 µM (inactive); in the assay with SW-620, 2.09 µM (inactive); in the assay with T47D it was 2.29 µM (inactive); in the assay with U-251, 6.03 µM (inactive). Moreover, the GI50 was 2.06 µM (inactive) with UACC-257 and 5.52 µM (inactive) in the assay with UACC-62.

Consider `CC(=O)Oc1cccc2c(/C=N/NC(N)=S)ncc(C)c12`, for which the GI50 with 786-0 is 0.322 µM (active); with A498, 7.55 µM (inactive); with ACHN, 0.445 µM (active); in the assay with CAKI-1 it was 4.17 µM (inactive); in the assay with HT-29, 4.48 µM (inactive); in the assay on Hs-578T, 20.6 µM (inactive). For the same molecule, the GI50 is 1.31 µM (inactive) with K562; 0.385 µM (active) in the assay on MOLT-4; 0.705 µM (active) with NCI-H522; 7.35 µM (inactive) in the assay on OVCAR-5; 1.9 µM (inactive) in the assay with PC-3; 0.207 µM (active) with SF-539. Moreover, the GI50 in the assay with SK-MEL-2 is 5.94 µM (inactive); with SK-OV-3 it was 1.46 µM (inactive); in the assay on SNB-75, 4.03 µM (inactive); in the assay on SW-620 it was 4.59 µM (inactive); with T47D, 1.47 µM (inactive); in the assay with U-251, 1.01 µM (active). Further, the GI50 is 5.51 µM (inactive) in the assay with UACC-257 and 1.17 µM (inactive) in the assay with UACC-62.

In the case of `CN(CCNC(=O)c1nn(-c2ccc(Cl)cc2Cl)c2c1Cc1ccccc1-2)CCNC(=O)c1nn(-c2ccc(Cl)cc2Cl)c2c1Cc1ccccc1-2`, the GI50 in the assay with 786-0 is 2.16 µM (inactive); with A498 it was 5.14 µM (inactive); in the assay on ACHN it was 4.53 µM (inactive); in the assay on CAKI-1 it was 4.94 µM (inactive); with HT-29, 2.19 µM (inactive); in the assay with Hs-578T it was 1.53 µM (inactive). The GI50 in the assay on K562 was 1.57 µM (inactive); in the assay with MOLT-4, 2.12 µM (inactive); with NCI-H522, 1.58 µM (inactive); in the assay with OVCAR-5, 20 µM (inactive); in the assay with PC-3, 5.87 µM (inactive); with SF-539 it was 1.85 µM (inactive). The GI50 was 2.05 µM (inactive) in the assay with SK-MEL-2; 15.7 µM (inactive) in the assay on SK-OV-3; 5.21 µM (inactive) with SNB-75; 1.86 µM (inactive) in the assay with SW-620; 3.77 µM (inactive) in the assay on T47D; 2.49 µM (inactive) in the assay on U-251. For the same molecule, the results for the GI50 in the assay on UACC-257 and in the assay with UACC-62 were 2.12 µM (inactive) and 1.85 µM (inactive), respectively.

For `S=C(NCCc1ccccn1)N/N=C(\c1ccccc1)c1ccccn1`, the GI50 in the assay on 786-0 is 1.47 µM (inactive); in the assay with A498 it was 0.211 µM (active); with ACHN it was < 0.0344 µM (active); in the assay with CAKI-1, < 0.01 µM (active); in the assay with HT-29, < 0.01 µM (active); in the assay with Hs-578T, 20.5 µM (inactive). The GI50 was < 0.01 µM (active) with K562; < 0.01 µM (active) in the assay with MOLT-4; < 0.01 µM (active) in the assay with NCI-H522; 7.82 µM (inactive) in the assay with OVCAR-5; 0.0583 µM (active) in the assay with PC-3; 0.63 µM (active) in the assay with SF-539. Besides, the GI50 with SK-MEL-2 is 21.5 µM (inactive); in the assay on SK-OV-3, 0.815 µM (active); in the assay on SNB-75, 6.47 µM (inactive); in the assay on SW-620, 0.0331 µM (active); in the assay on T47D it was < 0.0444 µM (active); with U-251, 0.121 µM (active). For the same molecule, the values for the GI50 in the assay with UACC-257 and with UACC-62 were 0.113 µM (active) and 1.03 µM (active), respectively.

In the case of `c1ccc(CCN(Cc2nc3ccccc3[nH]2)Cc2nc3ccccc3[nH]2)cc1`, the GI50 was 15.9 µM (inactive) with 786-0; 13.6 µM (inactive) in the assay on A498; 4.79 µM (inactive) in the assay with ACHN; 3.85 µM (inactive) in the assay on CAKI-1; 17.3 µM (inactive) in the assay on HT-29; 20.2 µM (inactive) with Hs-578T. The GI50 in the assay with K562 is 2.86 µM (inactive); in the assay on MOLT-4 it was 6.59 µM (inactive); with NCI-H522 it was 17 µM (inactive); in the assay with OVCAR-5, 23.8 µM (inactive); with PC-3 it was 11.5 µM (inactive); with SF-539 it was 20.7 µM (inactive). Moreover, the GI50 in the assay on SK-MEL-2 is 18 µM (inactive); with SK-OV-3, 24.4 µM (inactive); with SNB-75, 16.4 µM (inactive); in the assay on SW-620, 10.3 µM (inactive); with T47D, 1.79 µM (inactive); in the assay with U-251, 6.59 µM (inactive). The results for the GI50 in the assay with UACC-257 and in the assay with UACC-62 were 14.5 µM (inactive) and 13.4 µM (inactive), respectively.

Turning to `CC1=Nc2nc3ccccc3n2C(C)(C)C1`, the GI50 with 786-0, in the assay on A498, in the assay on ACHN, with CAKI-1, with HT-29 and in the assay on Hs-578T was > 100 µM (inactive) in each case. For the same molecule, the GI50 in the assay with K562, with MOLT-4, in the assay with NCI-H522, in the assay with OVCAR-5, in the assay on PC-3 and in the assay with SF-539 was > 100 µM (inactive) throughout. Moreover, the GI50 in the assay with SK-MEL-2, with SK-OV-3, in the assay on SNB-75, in the assay with SW-620, in the assay with T47D and in the assay on U-251 was > 100 µM (inactive) throughout. The GI50 in the assay on UACC-257 and in the assay with UACC-62 was > 100 µM (inactive) each time.

As to `C[C@H](CCC1=NCCN1)[C@H]1CC[C@H]2[C@@H]3CC[C@@H]4C[C@H](O)CC[C@]4(C)[C@H]3CC[C@]12C`, the GI50 in the assay with 786-0 was 2.37 µM (inactive); in the assay with A498, 14.9 µM (inactive); in the assay on ACHN, 7.91 µM (inactive); in the assay with CAKI-1, 3.51 µM (inactive); with HT-29 it was 0.575 µM (active); with Hs-578T, 14.8 µM (inactive). Besides, the GI50 with K562 is 2.49 µM (inactive); in the assay on MOLT-4, 2.7 µM (inactive); in the assay with NCI-H522, 5.41 µM (inactive); in the assay on OVCAR-5, 10.7 µM (inactive); in the assay on PC-3, 4.94 µM (inactive); in the assay on SF-539 it was 10.3 µM (inactive). For the same molecule, the GI50 was 4.49 µM (inactive) in the assay on SK-MEL-2; 18.8 µM (inactive) in the assay on SK-OV-3; 5.07 µM (inactive) in the assay with SNB-75; 6.84 µM (inactive) with SW-620; 13.1 µM (inactive) with T47D; 6.05 µM (inactive) in the assay on U-251. For the same molecule, the results for the GI50 in the assay on UACC-257 and in the assay on UACC-62 were 2.55 µM (inactive) and 2.07 µM (inactive), respectively.

Take `CCOC(=O)/C1=C(\C)N(c2ccc(C)cc2)C(=O)c2ccccc2C(=O)c2c(OC(C)=O)ccc(OC(C)=O)c21`: the GI50 in the assay on 786-0 is 34.8 µM (inactive); with A498, 67.1 µM (inactive); in the assay with ACHN it was 16.8 µM (inactive); in the assay with CAKI-1 it was 13.3 µM (inactive); in the assay on HT-29 it was 14.6 µM (inactive); in the assay on Hs-578T it was 16.6 µM (inactive). Besides, the GI50 is 16.1 µM (inactive) in the assay on K562; 6.27 µM (inactive) in the assay on MOLT-4; 20.7 µM (inactive) in the assay on NCI-H522; 21.9 µM (inactive) with OVCAR-5; 26.2 µM (inactive) with PC-3; 25.8 µM (inactive) in the assay with SF-539. The GI50 was 24 µM (inactive) in the assay with SK-MEL-2; 17.2 µM (inactive) with SK-OV-3; 25.8 µM (inactive) in the assay on SNB-75; 34.7 µM (inactive) in the assay with SW-620; 13.7 µM (inactive) in the assay on T47D; 24.9 µM (inactive) in the assay on U-251. The GI50 in the assay on UACC-257 was 21.8 µM (inactive); in the assay with UACC-62, 15 µM (inactive).

Consider `COc1c(C)c2nc3ccccc3nc2c2c(O)ccnc12`, for which the GI50 is 16.9 µM (inactive) with 786-0; 43.3 µM (inactive) with A498; 30.1 µM (inactive) in the assay with ACHN; > 100 µM (inactive) in the assay on CAKI-1; 69.7 µM (inactive) with HT-29; 16 µM (inactive) in the assay on Hs-578T. In addition, the GI50 in the assay on K562 is > 100 µM (inactive); in the assay on MOLT-4, > 100 µM (inactive); in the assay with NCI-H522, 71.3 µM (inactive); in the assay with OVCAR-5, > 100 µM (inactive); in the assay on PC-3, > 100 µM (inactive); with SF-539, 54.2 µM (inactive). In addition, the GI50 is > 100 µM (inactive) with SK-MEL-2; 75.7 µM (inactive) with SK-OV-3; 7.13 µM (inactive) with SNB-75; > 100 µM (inactive) with SW-620; 6.64 µM (inactive) in the assay on T47D; 54.5 µM (inactive) in the assay with U-251. Further, in the assay on UACC-257, the GI50 is > 100 µM (inactive).

`COc1cc2nc(-c3c(F)cccc3F)n(Cc3c(F)cccc3F)c2cc1Cc1c(F)cccc1F`: the GI50 in the assay with 786-0 was > 100 µM (inactive); in the assay with A498, 3.62 µM (inactive); with ACHN, > 42.6 µM (inactive); in the assay with CAKI-1 it was 8.77 µM (inactive); in the assay with HT-29, 3.53 µM (inactive); in the assay on Hs-578T, > 20.5 µM (inactive). Besides, the GI50 is > 28.6 µM (inactive) with K562; 6.84 µM (inactive) in the assay on MOLT-4; 10 µM (inactive) in the assay on NCI-H522; > 100 µM (inactive) in the assay with OVCAR-5; > 100 µM (inactive) in the assay with PC-3; > 68.7 µM (inactive) in the assay with SF-539. The GI50 with SK-MEL-2 is > 49.8 µM (inactive); in the assay with SK-OV-3, > 100 µM (inactive); with SNB-75, 2.74 µM (inactive); with SW-620 it was > 100 µM (inactive); in the assay on T47D it was 4.05 µM (inactive); in the assay with U-251, > 100 µM (inactive). Besides, the GI50 with UACC-62 is 2.64 µM (inactive).
